Results published in ChEMBL document CHEMBL1157533 (J Med Chem, 2008).

Legend:
[1] = Bioavailability in Beagle dog at 0.1 mg/kg, po by cassette assay; type: ADME, organism-based, Canis lupus familiaris; details: in vivo
[2] = Total clearance in Beagle dog at 0.1 mg/kg, iv by cassette assay; type: ADME, organism-based, Canis lupus familiaris; set-up: dose 0.1 mg/kg, route intravenous; details: in vivo
[3] = Total clearance in rat at 1.0 mg/kg, iv by cassette assay; type: ADME, organism-based; set-up: dose 1 mg/kg, route intravenous; details: in vivo
[4] = Terminal half life in Beagle dog at 0.1 mg/kg, iv by cassette assay; type: ADME, organism-based, Canis lupus familiaris; set-up: dose 0.1 mg/kg, route intravenous; details: in vivo, read-out: beta t1/2 (converted)
[5] = target: Beta-1 adrenergic receptor (Homo sapiens, UniProt P08588); assay: Agonist activity at human recombinant beta-1 adrenergic receptor expressed in CHO cells assessed as cAMP accumulation by enzyme immuno assay; type: functional, cell-based
Sequence of Beta-1 adrenergic receptor (P08588 whole entry): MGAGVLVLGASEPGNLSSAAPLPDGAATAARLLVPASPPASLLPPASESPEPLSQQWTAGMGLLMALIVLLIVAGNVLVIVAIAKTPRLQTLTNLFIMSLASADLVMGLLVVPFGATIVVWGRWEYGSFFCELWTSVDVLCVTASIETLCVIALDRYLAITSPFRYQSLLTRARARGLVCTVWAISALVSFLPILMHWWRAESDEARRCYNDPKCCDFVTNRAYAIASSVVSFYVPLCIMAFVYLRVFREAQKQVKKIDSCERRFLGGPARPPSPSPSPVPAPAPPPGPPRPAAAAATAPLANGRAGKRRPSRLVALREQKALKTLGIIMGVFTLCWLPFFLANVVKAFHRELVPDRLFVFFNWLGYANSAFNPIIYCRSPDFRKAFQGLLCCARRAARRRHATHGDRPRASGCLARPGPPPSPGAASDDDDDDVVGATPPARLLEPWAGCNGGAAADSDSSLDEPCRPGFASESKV

[6] = Total clearance in dog at 0.1 mg/kg, iv; type: ADME, organism-based, Canis lupus familiaris; set-up: dose 0.1 mg/kg, route intravenous; details: in vivo
[7] = AUC (0 to 2 hrs) in Beagle dog at 0.1 mg/kg, po by cassette assay; type: ADME, organism-based, Canis lupus familiaris; set-up: time < 2 hr, dose 0.1 mg/kg, route oral; details: plasma
[8] = target: Beta-2 adrenergic receptor (Homo sapiens, UniProt P07550); assay: Agonist activity at human recombinant beta2 adrenergic receptor expressed in CHO cells assessed as cAMP accumulation by enzyme immuno assay; type: functional, cell-based
Sequence of Beta-2 adrenergic receptor (P07550 whole entry): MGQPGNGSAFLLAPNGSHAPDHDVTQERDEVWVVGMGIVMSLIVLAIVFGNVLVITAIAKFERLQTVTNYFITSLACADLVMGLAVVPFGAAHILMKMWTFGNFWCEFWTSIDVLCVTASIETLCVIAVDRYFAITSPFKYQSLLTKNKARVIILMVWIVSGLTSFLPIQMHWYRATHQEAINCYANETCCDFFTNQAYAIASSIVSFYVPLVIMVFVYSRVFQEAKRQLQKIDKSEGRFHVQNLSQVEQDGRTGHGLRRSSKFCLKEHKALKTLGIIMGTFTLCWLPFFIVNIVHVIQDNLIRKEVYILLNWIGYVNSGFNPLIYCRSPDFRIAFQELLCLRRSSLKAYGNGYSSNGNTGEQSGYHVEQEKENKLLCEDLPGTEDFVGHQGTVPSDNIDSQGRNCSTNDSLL

[9] = Metabolic stability assessed as intrinsic clearance in rat liver microsome in presence of NADPH-generating system; type: ADME; details: liver microsomes
[10] = Total clearance in monkey at 0.32 mg/kg, iv by cassette assay; type: ADME, organism-based, Macaca mulatta; set-up: dose 0.32 mg/kg, route intravenous; details: rhesus monkey, in vivo
[11] = Bioavailability in monkey at 0.32 mg/kg, po by cassette assay; type: ADME, organism-based, Macaca mulatta; details: rhesus monkey, in vivo
[12] = AUC (0 to 24 hrs) in Beagle dog at 0.1 mg/kg, iv by cassette assay; type: ADME, organism-based, Canis lupus familiaris; set-up: time < 24 hr, dose 0.1 mg/kg, route intravenous; details: plasma
[13] = Terminal half life in dog at 0.1 mg/kg, iv; type: ADME, organism-based, Canis lupus familiaris; set-up: dose 0.1 mg/kg, route intravenous; details: in vivo, read-out: beta t1/2 (converted)
[14] = Cmax in dog at 0.1 mg/kg, po; type: ADME, organism-based, Canis lupus familiaris; set-up: dose 0.1 mg/kg, route oral; details: in vivo
[15] = AUC (0 to 24 hrs) in monkey at 0.32 mg/kg, po by cassette assay; type: ADME, organism-based, Macaca mulatta; set-up: time < 24 hr, dose 0.32 mg/kg, route oral; details: rhesus monkey, plasma
[16] = target: Beta-3 adrenergic receptor (Homo sapiens, UniProt P13945); assay: Agonist activity at human recombinant beta3 adrenergic receptor expressed in CHO cells assessed as cAMP accumulation by enzyme immuno assay; type: functional, cell-based
Sequence of Beta-3 adrenergic receptor (Homo sapiens, UniProt P13945) (P13945 whole entry): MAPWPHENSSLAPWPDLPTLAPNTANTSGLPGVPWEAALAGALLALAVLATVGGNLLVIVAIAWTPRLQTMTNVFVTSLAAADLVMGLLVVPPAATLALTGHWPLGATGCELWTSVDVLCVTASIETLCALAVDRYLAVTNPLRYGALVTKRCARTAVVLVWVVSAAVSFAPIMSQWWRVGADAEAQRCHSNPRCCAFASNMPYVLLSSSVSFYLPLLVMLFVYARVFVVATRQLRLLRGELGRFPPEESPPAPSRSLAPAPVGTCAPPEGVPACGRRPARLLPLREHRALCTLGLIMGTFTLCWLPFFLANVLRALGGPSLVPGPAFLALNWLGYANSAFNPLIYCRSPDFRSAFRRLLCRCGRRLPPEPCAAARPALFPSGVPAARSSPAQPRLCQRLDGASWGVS

[17] = Volume of distribution at steady state in Beagle dog at 0.1 mg/kg, iv by cassette assay; type: ADME, organism-based, Canis lupus familiaris; set-up: dose 0.1 mg/kg, route intravenous; details: in vivo, read-out: Vdss
[18] = Metabolic stability assessed as intrinsic clearance in human liver microsome in presence of NADPH-generating system; type: ADME; details: liver microsomes
[19] = Metabolic stability assessed as intrinsic clearance in dog liver microsome in presence of NADPH-generating system; type: ADME, Canis lupus familiaris; details: liver microsomes
[20] = target: Beta-3 adrenergic receptor (Canis lupus familiaris, UniProt O02662); assay: Agonist activity at dog recombinant beta3 adrenergic receptor expressed in CHO cells assessed as cAMP accumulation by enzyme immuno assay; type: functional, cell-based
Sequence of Beta-3 adrenergic receptor (Canis lupus familiaris, UniProt O02662) (O02662 whole entry): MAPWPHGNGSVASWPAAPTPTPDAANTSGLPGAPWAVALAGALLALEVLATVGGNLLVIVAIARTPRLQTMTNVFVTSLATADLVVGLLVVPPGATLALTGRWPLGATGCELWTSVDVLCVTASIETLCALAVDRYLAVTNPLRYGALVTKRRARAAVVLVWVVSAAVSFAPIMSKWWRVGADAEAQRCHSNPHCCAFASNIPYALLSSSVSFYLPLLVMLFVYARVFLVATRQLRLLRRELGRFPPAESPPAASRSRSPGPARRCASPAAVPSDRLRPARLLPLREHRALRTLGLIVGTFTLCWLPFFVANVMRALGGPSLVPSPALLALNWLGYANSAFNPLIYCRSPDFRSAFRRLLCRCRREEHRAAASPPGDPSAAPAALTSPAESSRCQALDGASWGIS

Canis familiaris = species: Canis familiaris; assay: cells; details: Canis lupus familiaris, 3 h
Description: Inhibition of carbachol-induced increase in intravesical pressure in intraduodenally dosed Beagle dog OAB model for 180 mins

[21] = Cmax in rat at 1.0 mg/kg, po by cassette assay; type: ADME, organism-based; set-up: dose 1 mg/kg, route oral; details: in vivo
[22] = Metabolic stability assessed as intrinsic clearance in monkey liver microsome in presence of NADPH-generating system; type: ADME, Macaca mulatta; details: rhesus monkey, liver microsomes
[23] = AUC (0 to 24 hrs) in dog at 0.1 mg/kg, po; type: ADME, organism-based, Canis lupus familiaris; set-up: time < 24 hr, dose 0.1 mg/kg, route oral; details: plasma
[24] = AUC (0 to 24 hrs) in rat at 1.0 mg/kg, po by cassette assay; type: ADME, organism-based; set-up: time < 24 hr, dose 1 mg/kg, route oral; details: plasma
[25] = Bioavailability in dog at 0.1 mg/kg, po; type: ADME, organism-based, Canis lupus familiaris; details: in vivo
[26] = Bioavailability in rat at 1.0 mg/kg, po by cassette assay; type: ADME, organism-based; details: in vivo
[27] = Protein binding in Beagle dog serum; type: ADME, cell-free, Canis lupus familiaris; details: read-out: PPB (converted)

For CC(C)Oc1cc(-c2ccc(C[C@@H](C)NC[C@H](O)c3ccccc3)cc2)ccc1C(=O)O, the bioavailability [1] was 41%, the clearance [2] was 0.39 L/h/kg and the clearance [3] was 0.432 L/h/kg. For the same molecule, the half-life [4] was 15.5 h, the EC50 [5] was 86 nM and the clearance [6] was 0.47 L/h/kg. The AUC(0-t) at 2 h [7] was 0.106 µg·h/mL, the EC50 [8] was greater than 10000 nM and the CLint scaled [9] was less than 0.006 L/h/kg. For the same molecule, the clearance [10] was 0.108 L/h/kg, the bioavailability [11] was 52.8% and the AUC(0-t) at 24 h [12] was 0.26 µg·h/mL. It also gave a half-life [13] of 14.3 h, a Cmax [14] of 0.0085 µg/mL and an AUC(0-t) at 24 h [15] of 1.3 µg·h/mL. The EC50 [16] was 0.091 nM, the Vd [17] was 5.4 L/kg and the CLint scaled [18] was less than 0.006 L/h/kg. The CLint scaled [19] was less than 0.006 L/h/kg, the EC50 [20] was 0.19 nM and the EC50 (Canis familiaris) was 2.5 nM. For the same molecule, the ED50 (Canis familiaris) was 3.5 µg/kg, the Cmax [21] was 0.117 µg/mL and the CLint scaled [22] was less than 0.06 L/h/kg. It also gave an AUC(0-t) at 24 h [23] of 0.162 µg·h/mL, an AUC(0-t) at 24 h [24] of 1.64 µg·h/mL and a bioavailability [25] of 79.6%. The bioavailability [26] was 69.7% and the fraction unbound [27] was 0.14.
